# Results published in patent US11911361B2, “Stable cannabinoid formulations” (priority 2014, dated 2024).
# Legend:
# [1] = tested on: vincristine-induced peripheral neuropathy; test: Vincristine induced neuropathic pain study; type: in vivo; settings: CBD 15 minutes prior to each vincristine 0.1 mg/kg injection
# Procedure: A study was designed to test the efficacy of CBD in preventing oxaliplatin- or vincristine-induced peripheral neuropathy. Two doses of CBD and vehicle were tested against each of these first line chemotherapeutic agents. Oxaliplatin was administered once at a dose of 6 mg/kg. CBD was administered 15 minutes prior to the single oxaliplatin injection. Vincristine was administered once daily for 7 days at a dose of 0.1 mg/kg. CBD was administered 15 minutes prior to each vincristine injection. For each treatment group the final sample size was 8 animals.
# [2] = tested on: maximal electroshock-induced seizures; test: Maximal electroshock test (MES), rats; settings: Anticonvulsant Screening
# [3] = Pharmacokinetic food-effect study, single 20 mg/kg dose, healthy subjects (Example 17); settings: for AUC / AUC(0-t) / AUC(0-inf): human, in vivo, po, 20 mg/kg; for AUC: AUC0, cannabidiol; for AUC(0-inf): AUC0-inf
# Procedure: An open label, randomized, single-dose, two-period, two-way crossover food-effect study was conducted on healthy subjects. […] Twenty-four (24) subjects were enrolled in the study and each were subjected to the fasted and fed treatment arms in separate periods followed by a 7-day wash-out period. For pharmacokinetic analysis, nominal time and default lambda-z selections were used. All below quantifiable limit values were set to zero and all subjects were included in the analysis.
# Data from 13 subjects from the fasted treatment and 24 subject from the fed treatment were included in the pharmacokinetic and statistical analyses.
# [4] = cannabidiol, single 20 mg/kg oral dose of cannabidiol solution, fasted, mean
# [5] = cannabidiol, single 20 mg/kg oral dose of cannabidiol solution, fed, mean
smiles,measurement,setting,value
"C=C(C)[C@@H]1CCC(C)=C[C@H]1c1c(O)cc(CCCCC)cc1O [cannabidiol, (−)-trans-2-p-mentha-1,8-dien-3-yl-5-pentylresorcinol]",effect on vincristine-induced mechanical sensitivity (in words),[1],no main effect of treatment
same,MES N/F (animals protected/tested),"[2]; dose 30, 1.0 h, ethanol:polyethoxylated castor oil:PBS",0/4
same,MES N/F (animals protected/tested),"[2]; dose 30, 1.0 h, methylcellulose",0/4
same,MES N/F (animals protected/tested),"[2]; dose 30, 2.0 h, ethanol:polyethoxylated castor oil:PBS",0/4
same,MES N/F (animals protected/tested),"[2]; dose 30, 2.0 h, methylcellulose",0/4
same,MES N/F (animals protected/tested),"[2]; dose 30, 4.0 h, ethanol:polyethoxylated castor oil:PBS",0/4
same,MES N/F (animals protected/tested),"[2]; dose 30, 4.0 h, methylcellulose",0/4
same,MES N/F (animals protected/tested),"[2]; dose 100, 1.0 h, ethanol:polyethoxylated castor oil:PBS",1/4
same,MES N/F (animals protected/tested),"[2]; dose 100, 1.0 h, methylcellulose",0/4
same,MES N/F (animals protected/tested),"[2]; dose 100, 2.0 h, ethanol:polyethoxylated castor oil:PBS",0/4
same,MES N/F (animals protected/tested),"[2]; dose 100, 2.0 h, methylcellulose",0/4
same,MES N/F (animals protected/tested),"[2]; dose 100, 4.0 h, ethanol:polyethoxylated castor oil:PBS",0/4
same,MES N/F (animals protected/tested),"[2]; dose 100, 4.0 h, methylcellulose",0/4
same,AUCextrap,[3]; [4],3.57%
same,Clast,[3]; [4],0.867 ng/mL
same,Tlast,[3]; [4],120.01 h
same,λz,[3]; [4],0.0257 h⁻¹
same,AUCextrap,[3]; [5],3.84%
same,Clast,[3]; [5],6.36 ng/mL
same,Tlast,[3]; [5],120.00 h
same,λz,[3]; [5],0.0165 h⁻¹
same,AUC,"[3]; single 20 mg/kg oral, fasted, mean ± SD",0.325 ± 1.17 ng·h/mL
same,AUC,"[3]; single 20 mg/kg oral, fed, mean ± SD",0.229 ± 0.636 ng·h/mL
same,AUC(0-t),"[3]; AUC0-0.25, cannabidiol, single 20 mg/kg oral, fasted, mean ± SD",0.363 ± 1.31 ng·h/mL
same,AUC(0-t),"[3]; AUC0-0.25, cannabidiol, single 20 mg/kg oral, fed, mean ± SD",0.498 ± 0.874 ng·h/mL
same,AUC(0-t),"[3]; AUC0-0.5, cannabidiol, single 20 mg/kg oral, fasted, mean ± SD",0.584 ± 1.33 ng·h/mL
same,AUC(0-t),"[3]; AUC0-0.5, cannabidiol, single 20 mg/kg oral, fed, mean ± SD",2.45 ± 3.38 ng·h/mL
same,AUC(0-t),"[3]; AUC0-0.75, cannabidiol, single 20 mg/kg oral, fasted, mean ± SD",1.25 ± 1.34 ng·h/mL
same,AUC(0-t),"[3]; AUC0-0.75, cannabidiol, single 20 mg/kg oral, fed, mean ± SD",7.48 ± 11.2 ng·h/mL
same,AUC(0-t),"[3]; AUC0-1, cannabidiol, single 20 mg/kg oral, fasted, mean ± SD",1.93 ± 1.62 ng·h/mL
same,AUC(0-t),"[3]; AUC0-1, cannabidiol, single 20 mg/kg oral, fed, mean ± SD",21.8 ± 40 ng·h/mL
same,AUC(0-t),"[3]; AUC0-1.5, cannabidiol, single 20 mg/kg oral, fasted, mean ± SD",2.79 ± 2.14 ng·h/mL
same,AUC(0-t),"[3]; AUC0-1.5, cannabidiol, single 20 mg/kg oral, fed, mean ± SD",128 ± 215 ng·h/mL
same,AUC(0-t),"[3]; AUC0-2, cannabidiol, single 20 mg/kg oral, fasted, mean ± SD",4.14 ± 2.75 ng·h/mL
same,AUC(0-t),"[3]; AUC0-2, cannabidiol, single 20 mg/kg oral, fed, mean ± SD",269 ± 381 ng·h/mL
same,AUC(0-t),"[3]; AUC0-2.5, cannabidiol, single 20 mg/kg oral, fasted, mean ± SD",5.38 ± 4.09 ng·h/mL
same,AUC(0-t),"[3]; AUC0-2.5, cannabidiol, single 20 mg/kg oral, fed, mean ± SD",424 ± 547 ng·h/mL
same,AUC(0-t),"[3]; AUC0-3, cannabidiol, single 20 mg/kg oral, fasted, mean ± SD",5.88 ± 3.99 ng·h/mL
same,AUC(0-t),"[3]; AUC0-3, cannabidiol, single 20 mg/kg oral, fed, mean ± SD",535 ± 675 ng·h/mL
same,AUC(0-t),"[3]; AUC0-4, cannabidiol, single 20 mg/kg oral, fasted, mean ± SD",6.62 ± 3.85 ng·h/mL
same,AUC(0-t),"[3]; AUC0-4, cannabidiol, single 20 mg/kg oral, fed, mean ± SD",812 ± 874 ng·h/mL
same,AUC(0-t),"[3]; AUC0-6, cannabidiol, single 20 mg/kg oral, fasted, mean ± SD",12 ± 9.29 ng·h/mL
same,AUC(0-t),"[3]; AUC0-6, cannabidiol, single 20 mg/kg oral, fed, mean ± SD",1090 ± 886 ng·h/mL
same,AUC(0-t),"[3]; AUC0-8, cannabidiol, single 20 mg/kg oral, fasted, mean ± SD",22.9 ± 39.3 ng·h/mL
same,AUC(0-t),"[3]; AUC0-8, cannabidiol, single 20 mg/kg oral, fed, mean ± SD",819 ± 590 ng·h/mL
same,AUC(0-t),"[3]; AUC0-12, cannabidiol, single 20 mg/kg oral, fasted, mean ± SD",14.7 ± 10.2 ng·h/mL
same,AUC(0-t),"[3]; AUC0-12, cannabidiol, single 20 mg/kg oral, fed, mean ± SD",372 ± 338 ng·h/mL
same,AUC(0-t),"[3]; AUC0-16, cannabidiol, single 20 mg/kg oral, fasted, mean ± SD",9.76 ± 4.79 ng·h/mL
same,AUC(0-t),"[3]; AUC0-16, cannabidiol, single 20 mg/kg oral, fed, mean ± SD",112 ± 133 ng·h/mL
same,AUC(0-t),"[3]; AUC0-24, cannabidiol, single 20 mg/kg oral, fasted, mean ± SD",5.45 ± 2.76 ng·h/mL
same,AUC(0-t),"[3]; AUC0-24, cannabidiol, single 20 mg/kg oral, fed, mean ± SD",34.3 ± 11.7 ng·h/mL
same,AUC(0-t),"[3]; AUC0-36, cannabidiol, single 20 mg/kg oral, fasted, mean ± SD",5 ± 3.78 ng·h/mL
same,AUC(0-t),"[3]; AUC0-36, cannabidiol, single 20 mg/kg oral, fed, mean ± SD",20.7 ± 5.11 ng·h/mL
same,AUC(0-t),"[3]; AUC0-48, cannabidiol, single 20 mg/kg oral, fasted, mean ± SD",2.66 ± 2.4 ng·h/mL
same,AUC(0-t),"[3]; AUC0-48, cannabidiol, single 20 mg/kg oral, fed, mean ± SD",15.5 ± 4.31 ng·h/mL
same,AUC(0-t),"[3]; AUC0-72, cannabidiol, single 20 mg/kg oral, fasted, mean ± SD",1.73 ± 1.89 ng·h/mL
same,AUC(0-t),"[3]; AUC0-72, cannabidiol, single 20 mg/kg oral, fed, mean ± SD",10.1 ± 3.42 ng·h/mL
same,AUC(0-t),"[3]; AUC0-96, cannabidiol, single 20 mg/kg oral, fasted, mean ± SD",1.35 ± 1.73 ng·h/mL
same,AUC(0-t),"[3]; AUC0-96, cannabidiol, single 20 mg/kg oral, fed, mean ± SD",7.86 ± 2.44 ng·h/mL
same,AUC(0-t),"[3]; AUC0-120, cannabidiol, single 20 mg/kg oral, fasted, mean ± SD",0.867 ± 1.34 ng·h/mL
same,AUC(0-t),"[3]; AUC0-120, cannabidiol, single 20 mg/kg oral, fed, mean ± SD",6.36 ± 2.24 ng·h/mL
same,AUC(0-inf),[3]; [4],360 ng·h/mL
same,AUC(0-inf),[3]; [5],10100 ng·h/mL
same,AUC(0-t),"[3]; AUC0-t, cannabidiol, single 20 mg/kg oral dose of cannabidiol solution, fasted, mean",466 ng·h/mL
same,AUC(0-t),"[3]; AUC0-t, cannabidiol, single 20 mg/kg oral dose of cannabidiol solution, fed, mean",9650 ng·h/mL
